From PubChem BioAssay AID463206 (Broad Institute, 2010)
The source made the active and inactive calls.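 How the source made its calls: active means caspase luminescence falls with dose and the half-maximal concentration AC50 from the fitted curve is at or below a set limit; inconclusive means flat fit at 30 to 70% signal loss, or invalid fit; inactive means AC50 above the limit, or signal rises instead.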

Each compound was assayed on INS-1E cytokine-induced caspase-3/7, Caspase-Glo luminescence, 48 h (assay: suppression of cytokine-driven beta-cell apoptosis – INS-1E rat cells, luminescence, orthogonal assay for beta-cell apoptosis protection project, dose response (AID 463206)).

| Structure (SMILES) | AC50 |
| --- | --- |
| Oc1c(Cl)cc(Cl)cc1/C=N/Nc1ncc(Br)cn1 | > 26 µM (inactive) |
| FC(F)(F)c1cnc(NNC(=S)Nc2ccccc2Cl)c(Cl)c1 | > 26 µM (inactive) |
| Cc1ccc(NC2=C(N3CCCCC3)C(=O)c3ccccc3C2=O)cc1 | > 26 µM (inactive) |
| O=C(CCSc1nc2ccccc2s1)N/N=C/c1c(O)ccc2ccccc12 | > 26 µM (inactive) |
| O=c1c(Cl)c2oc3ccccc3nc-2c2ccccc12 | > 26 µM (inactive) |
| O=[N+]([O-])c1ccc(N2CCN(C(=S)Nc3ccc(F)cc3)CC2)cc1 | > 26 µM (inactive) |
| Cc1cc(/C=N/n2c(COc3ccccc3C)nc3ccccc3c2=O)c(O)c([N+](=O)[O-])c1 | > 26 µM (inactive) |
| CCN(c1ccccc1)S(=O)(=O)c1ccc(C(=O)NC2CCN(Cc3ccccc3)CC2)cc1 | > 26 µM (inactive) |
| CC1(C)CC(N2CCN(c3ccccc3)CC2)=CC(=[N+]2CCCC2)C1 | > 26 µM (inactive) |
| COc1ccc(C(=O)NCC(=O)N/N=C/c2ccc([N+](=O)[O-])s2)cc1OC | > 26 µM (inactive) |
| C/C(=N\NC(=O)c1cc(C)nc2ccccc12)c1ccccn1 | > 26 µM (inactive) |
| CCN(CC)CCn1nc2c3c(cccc3c1=O)-c1ccccc1-2 | 8.24 µM |
| Nc1nonc1-n1nnc(C(=O)N/N=C/c2cc(Br)ccc2O)c1CNc1ccccc1 | > 26 µM (inactive) |
| COc1ccc(NC(=O)CN(C)C(=O)/C=C/c2ccc(S(=O)(=O)N3CCCCCC3)cc2)cc1 | > 26 µM (inactive) |
| O=C(Nc1cccc([N+](=O)[O-])c1)c1cc2ccccc2cc1O | > 26 µM (inactive) |
| CN(C)c1ccc(/C=C(\C#N)C(=O)OCC(=O)N(C)C2CCS(=O)(=O)C2)cc1 (stereo unspecified) | > 26 µM (inactive) |
| C=C1C(=O)O[C@@H]2C[C@@H](C)[C@@H]3C=CC(=O)[C@@]3(C)[C@@H](OC(=O)CC(=O)O[C@H]3[C@@H]4C(=C)C(=O)O[C@@H]4C[C@@H](C)[C@@H]4C=CC(=O)[C@]43C)[C@H]12 | > 26 µM (inactive) |
| CC(Sc1nnc2c(n1)[nH]c1ccccc12)C(=O)N(C)C1CCCCC1 (stereo unspecified) | > 12 µM (inactive) |
| Oc1c(C(Nc2cccc(C(F)(F)F)c2)c2ccncc2)ccc2cccnc12 (stereo unspecified) | > 26 µM (inactive) |
| N#CC(C#N)=C(Nc1ccc(F)cc1)SCc1cccc(F)c1 | > 26 µM (inactive) |
| Cc1ccc2c(C)ccc(O)c2n1 | > 26 µM (inactive) |
| O=S1(=O)C=C(Sc2nc3ccccc3s2)c2ccccc21 | > 26 µM (inactive) |
| Cc1ccc(NC(=O)c2ccccc2NS(=O)(=O)c2ccc(Cl)s2)cc1 | > 26 µM (inactive) |

| Structure (SMILES) | AC50 |
| --- | --- |
| Cc1[nH]c2ccccc2c1CN1CCN(c2ccccn2)CC1 | > 26 µM (inactive) |
| Cc1csc2ncnc(N3CCN(S(=O)(=O)c4cccc(C(F)(F)F)c4)CC3)c12 | > 26 µM (inactive) |
| O=C(c1cc2sccc2n1Cc1ccccc1)N1CCN(c2nc3ccccc3s2)CC1 | > 26 µM (inactive) |
| C=C1C(O)[C@@H]2O[C@]3(CC[C@H](/C=C/C(C)[C@@H]4CC(C)=CC5(O[C@H](C[C@@](C)(O)C(=O)O)CCC5O)O4)O3)CC[C@H]2O[C@@H]1C(O)CC(C)[C@H]1OC2(CCCCO2)CCC1C (stereo partly specified) | > 26 µM (inactive) |
| O=C1c2ccccc2C2=Nc3ccccc3SC(c3ccc(Cl)cc3)C12 (stereo unspecified) | > 26 µM (inactive) |
| CCc1nc(N2CCN(C(C)=O)CC2)c2c3c(sc2n1)CC(C(C)(C)C)CC3 (stereo unspecified) | > 26 µM (inactive) |
| COc1ccc(/C=C/c2cc(-c3ccc(C)cc3)o[n+]2C)cc1 | > 26 µM (inactive) |
| Oc1c(N=Nc2ccccn2)ccc2ccccc12 | > 26 µM (inactive) |
| C#CCN(C(=O)c1cc(COc2cccc(C(F)(F)F)c2)on1)C1CCCCC1 | > 26 µM (inactive) |
| COc1ccc(-c2n(Cc3ccccc3)c3ccccc3[n+]2Cc2ccccc2)cc1 | > 26 µM (inactive) |
| CCN(CC)CCC(=O)Nc1cccc2c1C(=O)c1ccccc1C2=O | 2.26 µM |
| Cc1cc(C)n2nc(SCc3nnc(SCc4ccccc4C)s3)nc2n1 | > 26 µM (inactive) |
| C/C(=N\NC(=O)c1c(C)nc2ccccn12)c1ccc(O)cc1O | > 26 µM (inactive) |
| COc1ccc(N(C(=O)CCl)C(C(=O)NCCc2ccccc2)c2cccs2)cc1Cl (stereo unspecified) | > 26 µM (inactive) |
| COCCCNC(=O)Cn1nnc(-c2ccc(NC(=O)c3cccnc3)cc2)n1 | > 26 µM (inactive) |
| Cc1ccc(-n2c(-c3ccccc3)c[n+]3c2CCc2ccccc2-3)c(C)c1 | > 26 µM (inactive) |
| CCCCCn1c(=O)c(C(=O)Nc2nc3ccccc3[nH]2)c(O)c2ccccc21 | > 26 µM (inactive) |
| Cc1cccc(NC(=O)c2ccc([N+](=O)[O-])s2)c1C | > 26 µM (inactive) |
| Oc1ccc(N=Nc2ccc3c(c2)OCCO3)c2ncccc12 | > 26 µM (inactive) |
| CC[C@@]1(O)C(=O)OCc2c1cc1n(c2=O)Cc2cc3c(N)cccc3nc2-1 | 0.36 µM |
| Cc1ccc(C(=O)NC2CCCc3c2cnn3-c2ccc(F)cc2F)cn1 (stereo unspecified) | > 26 µM (inactive) |
| O=C1c2ccc3c4c(ccc(c24)C(=O)N1c1cccc(O)c1)C(=O)N(c1cccc(O)c1)C3=O | > 26 µM (inactive) |
| N#Cc1c(Nc2ccccc2)sc(C(=O)c2ccc(F)cc2)c1N | > 26 µM (inactive) |
